# Measured values taken from patent publication US10882821B1, “Enantiomeric compound for the reduction of the deleterious activity of extended nucleotide repeat containing genes” (THE BOARD OF TRUSTEES OF THE LELAND STANFORD JUNIOR …, priority 2017, dated 2021).
# What was measured:
# [1] = brain to plasma ratio after oral dose; format: in vivo; conditions: at 1 hour following a 5 mg/kg oral dose in rats
# [2] = molecular target: T1, interaction between Supt4h and NGN (subunit of Supt5h) (Homo sapiens, UniProt P63272); test: split Gaussia luciferase complementation assay (M2-8 cells); format: cell-based; conditions: for IC50: M2-8 cells, 24 hr treatment
# T1 construct: expressed in transfected cells
# Experimental: 1. Slit Gaussia Luciferase Complementation Assay […]
# i pNBR-X1-Supt4-Gluc1 and pNEBR-X1-NGN-Guc2
# The HA-Supt4hand Flag-NGN fragments are amplified by PR using the plasmid pHA-Supt4h-YC and pFlag-NGN-YN and sub-cloned individually into pcDNA3.1-Gluc1 and pcDNA3.1-GIuc2 (described in “A highly sensitive protein-protein interaction assay based on Gausssia Luciferase” published at Nat Methods. 2006 December; 3(12):977-9.Epub 2006 Nov. 12). Then HA-Supt4h-Gluc1 and Flag-NGN-Gluc2 are amplified by PCR and inserted to pNEBR-X1-Hygro (New England BioLabs), which contain RheoSwitch responsive element under the control of RheoSwitch ligand. […]
# ii: pNEBR-X1-Supt4h-G1-NGN-G2
# PCR products containing the sequence from 5XRE to polyA in pNEBR-X1-NGN-G2 are inserted to pNEBR-X1-Supt4h-G1 at Pcil site to generate Supt4h-G1 and NGN-G2 bidirectional under their own RheoSwitch responsive element and polyA in the same plasmid. […]
# b. Stable Cloned Cell Line i: 293-R1 is a cloned cell which is engineered to constitutively express RSL1 receptor/activator by transfecting HEK 293 cells with pNEBR-R1 plasmid (New England BioLabs) and selected with Blasticidin. […]
# ii: M2-8 is a cloned 293-R cell which can inducibly express pNEBR-X1-Supt4h-G1-NGN-G2 by addition of RSL1. Two point mutations (M431 and M1101) are introduced to the GL1 and GL2 for better stability according to “A high-throughput cell-based Gaussia luciferase reporter assay for identifying modulators of fibulin-3 secretion” published on J Biomol Screen. 2013 July; 18(6):647-58. The cell line is selected by Hygromycin. […]
# c. Cell Culture and Transfection Condition
# All the HEK-293 cells and derivative cell clones are maintained in DMEM containing 10% FBS plus corresponding antibiotics (250 μg/ml hygromycin B, 10 μg/ml blasticidin or both) at 37° C., 5% CO2. d. Bioluminescence Assay in Cell Lysates
# For stable cell M2-8, the cells are plated into 96 well white plate directly. 24 hours later, RheoSwitch ligand together with/without test compound is added to the cells for induction/drug treatment. After 24 hr, the cells are washed with PBS and the plate was put in −20° C. freezer for overnight. After taking out the plate from freezer, lysis buffer (30 mM Tris-HCl, pH 8.0, 5 mM NaCl, 0.1% Triton X-100) with 10 μg/ml native coelenterazine (Nanolight Technology) is immediately added to the cells. The cells are lysed at room temperature for one hour in dark. After shaking for about 1 min, the signal intensities (integrated 100 ms) from the plate were read on Tecan Infinite M200 or M1000.
# The split gaussia luciferase complementation assay measures the interaction between Sup4h and NGN. NGN is the subunit of Supt5h that binds to Supt4h. […] Therefore, administration of HD143 results in decreased production of mutant proteins encoded by genes that include mutant nucleotide repeats.
# [3] = test system: mutant HTT in lymphoblastoid cells GM14044; test: HD lymphoblastoid cell assay to assess mutant HTT reduction; format: cell-based, human; conditions: 72 hours
# Experimental: 3. HD Lymphoblastoid Cell Assay to Assess Mutant HTT Reduction
# Lymphoblastoid cells GM14044, which are derived from Juvenile HD patient with around 250 CAG repeats in the mutant HTT allele, are used for lymphoblastoid cell assays. Lymphoblastoid cells are cultured as suspension cells. Right before the compound treatments, 5×10^5 cells/well are seeded into 24 well plate in 1.5 ml RPMI culture medium plus 10% fetal bovine serum. Compounds in serial dilutions are added into the well for the indicated final concentration. Cells are maintained in 37° C., 5% CO2 incubator for 72 hours
# b. Compound Effect in Reducing mHTT (IC50)
# The rest of the cell/medium mixture is removed from culture plate into a 1.5 ml microcentrifuge tube, then centrifuged at 2500 rpm for 2 minutes to remove the culture medium. Cell pallets are washed with 1×PBS, then stored at −80° C. until ready for Western blot analysis. Western blot analysis is performed as described above. The intensity of HTT from untreated cells is set as 100% and the IC50 of the compound is defined as the compound concentration at which the HTT protein was reduced to 50%.
# mutant HTT protein = test: mutant HTT activity assay in induced pluripotent stem cells (Western blot); format: cell-based, human; conditions: HD patient iPSC; for effect on mutant HTT protein level in iPSC derived from a Huntington Disease patient: one day treatment, Western blot
# Experimental: 3. Mutant HTT Activity Assay in Induced Pluripotent Stem Cells (iPSC)
# Huntington disease patient iPSCs (ND36999 from Coriell Institute) were detached into single cells by Accutase (AT104 from Accutase) and plated on a 24-well plate coated with Matrigel (354277 from Corning). When the cells' confluency reaches about 70%, compounds are added to the cell culture medium StemMACS (130104368 from MiltenyiBiotec) and incubated with the cells for one day. Then the medium is removed and the cells are washed with PBS. After all liquid is removed, the plate is put in −80° C. for overnight. After taking out the plate from freezer, lysis buffer (30 mM Tris-HCl, pH 8.0, 5 mM NaCl, 0.1% Triton X-100) with complete proteinase inhibitor cocktail (5892791001 from Sigma-Aldrich) is immediately added to the cells. Cell samples are lysed on ice for 10 minutes. The supernatants from spinning (14 k rpm for 10 min) are collected. The protein concentrations are determined by BCA assay (Pierce, ThermoFisher). Equal amounts of protein are loaded onto 4-12% gel. After electrophoresis, the gels are transferred to nitrocellulose membranes by wet transfer at 35V for 16 hr. The protein level of mutant HTT, total HTT and tubulin are determined by immunoblotting with anti-poly Glutamine (MAB1574 from Millipore), anti-Huntingtin protein (MAB2166 from Millipore) and anti-alpha tubulin (AJ1034a from ABGENT). Blots are imaged on a Li-Cor Odyssey infrared imager. The bands intensities are determined by Li-Cor Odyssey software.
# Using the protocol reported above, iPSCs were treated with HD143 at various doses for 24 hr. The cells were collected and lysed for protein quantification. Equal amounts of protein were applied on SDS-PAGE gel for Western Blotting. Mutant HTT protein was recognized by polyQ antibody (MAB1574 from Millipore) while wild type HTT protein was blotted by anti-Huntingtin antibody (MAB2166 from Millipore). Both proteins were scanned and quantified by Li-Cor Odyssey and normalized by tubulin.
# [4] = test system: Gmr-Htt97Q Drosophila HD model (mutant Htt); test: eye morphology (rough eye) analysis in Drosophila HD model; format: in vivo, Drosophila melanogaster; conditions: Gmr-Htt97Q/+ flies, 10 or 100 μM in media
# Experimental: The Drosophila melanogaster (fruit fly) HD models used in this set of experiments carry the coding sequence of human Httexon1 with 97 CAG repeats to mimic mutant Httof Huntington's disease (HD). The Gmr::Htt97Q fly, expressing mutant Htt primarily in the neurons of Drosophila compound eyes, has a severe degeneration of photoreceptor neurons and the phenotypic trait ‘rough eye’. All of the fly stocks and genetics crosses were maintained at 25° C. on standard cornmeal yeast agar media.
# 2. Eye Morphology (Rough Eye) Analysis
# 15 adult male flies (Gmr-Htt97Q/Gmr-Htt97Q or Gmr/Gmr) were crossed with 15 virgin female flies W1118(+/+) in a vial containing standard yeast agar media with testing compound (+)-HD143 in a concentration of 10 μM or 100 μM. Parent-flies were first removed from vials at day 7, followed by a collection of newly hatched flies for ‘rough eye’ analysis. The morphology of compound eyes was captured using a Leica DMR upright microscope equipped with a digital camera (CooISNAP 5.0, Photometrics). […]
# FIG. 4A. The morphology of compound eye was analyzed in fruit flies treated with or without (+)-HD143. […] To quantify the appearance of “rough eye” in Gmr-Htt97Q/+ treated with 10 and 100 μM of (+)-HD143, ten flies were randomly picked from each group and the number of flies with “rough eye” phenotype were determined under microscope. […]
Compound,[Brain]/[Plasma] [1],IC50 [2],effect on Supt4h/NGN interaction ([2]; split Gaussia luciferase complementation assay),IC50 [3],Dose to reduce mutant HTT in HD iPSC (mutant HTT protein; 24 hr),effect on mutant HTT protein level in iPSC derived from a Huntington Disease patient (mutant HTT protein),effect on neuron degeneration phenotypes (rough eye) of mutant Htt in Drosophila HD models [4],effect on neuron degeneration phenotypes (rough eye) of mutant Htt in Drosophila HD models ([4]; listed as (+)-HD143),"fold more potent than racemic HD143 ([2]; ratio of IC50 values, split Gaussia luciferase assay)"
"Brc1ccc2[nH]c3c(c2c1)CCCC3NCc1ccccc1 (racemic) [racemic HD143, N-benzyl-6-bromo-2,3,4,9-tetrahydro-1H-carbazol-1-amine]",9 at 1 hour following a 5 mg/kg oral dose in rats,30 nM,interrupts the interaction between Sup4h and NGN,90 nM,>=60 nm,decreases mutant HTT protein,–,–,–
"Brc1ccc2[nH]c3c(c2c1)CCC[C@@H]3NCc1ccccc1.Cl [(S)-(−)-HD143, (S)-(−)-N-Benzyl-6-bromo-2,3,4,9-tetrahydro-1H-carbazol-1-amine Hydrochloride]",–,900 nM,–,–,–,showed no activity,–,–,–
"Brc1ccc2[nH]c3c(c2c1)CCC[C@H]3NCc1ccccc1 [(R)-(+)-HD143, (R)-(+)-N-benzyl-6-bromo-2,3,4,9-tetrahydro-1H-carbazol-1-amine]",–,15 nM,–,–,–,significantly reduced mutant HTT protein level,alleviates neuron degeneration phenotypes,Alleviates Neuron Degeneration Phenotypes,2 fold
